From PubChem BioAssay AID2060607 (Molecular Pharmacology Branch, DTP, NCI, 2025)
Values joined by “and” are separate entries in the source; they are usually repeats but may differ in a detail not shown here. Equal values may be shown once.

Tested on: 876862-298-R-J1-PDC complex spheroids, viability % test/control
Test: Anticancer human tumor 876862-298-R-J1-PDC patient-derived endometrial carcinoma cell line growth inhibition [CLK]
Details: for viability, T/C: stronger effect = lower value
Outline: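 Patient-derived tumor cells grown as complex spheroids with HUVEC endothelial cells and mesenchymal stem cells, treated with drug combinations. Concentrations descend in half-log steps from near clinical Cmax, or from 10 microM if Cmax unknown.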

[1] = curve of first compound, second compound 0.0316 µM
[2] = curve of first compound, second compound 0.1 µM
[3] = curve of first compound, second compound 0.316 µM
[4] = curve of first compound, second compound 1 µM
[5] = curve of first compound, second compound 3.16 µM
[6] = curve of first compound, second compound 10 µM
[7] = second compound 0.0316 µM, first compound 0.0316 µM
[8] = second compound 0.0316 µM, first compound 0.1 µM
[9] = second compound 0.0316 µM, first compound 0.316 µM
[10] = second compound 0.0316 µM, first compound 1 µM
[11] = second compound 0.0316 µM, first compound 3.16 µM
[12] = second compound 0.0316 µM, first compound 10 µM
[13] = second compound 0.1 µM, first compound 0.0316 µM
[14] = second compound 0.1 µM, first compound 0.1 µM
[15] = second compound 0.1 µM, first compound 0.316 µM
[16] = second compound 0.1 µM, first compound 1 µM
[17] = second compound 0.1 µM, first compound 3.16 µM
[18] = second compound 0.1 µM, first compound 10 µM
[19] = second compound 0.316 µM, first compound 0.0316 µM
[20] = second compound 0.316 µM, first compound 0.1 µM
[21] = second compound 0.316 µM, first compound 0.316 µM
[22] = second compound 0.316 µM, first compound 1 µM
[23] = second compound 0.316 µM, first compound 3.16 µM
[24] = second compound 0.316 µM, first compound 10 µM
[25] = second compound 1 µM, first compound 0.0316 µM
[26] = second compound 1 µM, first compound 0.1 µM
[27] = second compound 1 µM, first compound 0.316 µM
[28] = second compound 1 µM, first compound 1 µM
[29] = second compound 1 µM, first compound 3.16 µM
[30] = second compound 1 µM, first compound 10 µM
[31] = second compound 3.16 µM, first compound 0.0316 µM
[32] = second compound 3.16 µM, first compound 0.1 µM
[33] = second compound 3.16 µM, first compound 0.316 µM
[34] = second compound 3.16 µM, first compound 1 µM
[35] = second compound 3.16 µM, first compound 3.16 µM
[36] = second compound 3.16 µM, first compound 10 µM
[37] = second compound 10 µM, first compound 0.0316 µM
[38] = second compound 10 µM, first compound 0.1 µM
[39] = second compound 10 µM, first compound 0.316 µM
[40] = second compound 10 µM, first compound 1 µM
[41] = second compound 10 µM, first compound 3.16 µM
[42] = second compound 10 µM, first compound 10 µM
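Also: spheroids exposed to drugs for 7 days before readout.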
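For viability, T/C in this document: 100% = DMSO vehicle control wells.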

For `C=CC(=O)N1CCN(c2nc(=O)n(-c3c(C)ccnc3C(C)C)c3nc(-c4c(O)cccc4F)c(F)cc23)C(C)C1` (stereo not drawn) + CN1CCN(c2cc(C(=O)Nc3cc4cc(-c5cnn(C)c5)ccc4cn3)ccn2)CC1, the IC50 [1] was over 10000 nM, the IC50 [2] was 1720 nM and the IC50 [3] was under 31.6 nM. For the same molecule, the IC50 [4] was under 31.6 nM, the IC50 [5] was under 31.6 nM and the IC50 [6] was under 31.6 nM. The viability, T/C [7] was 80.7%, the viability, T/C [8] was 90.6% and the viability, T/C [9] was 91%. The viability, T/C [10] was 96.3%, the viability, T/C [11] was 99% and the viability, T/C [12] was 58.4%. The viability, T/C [13] was 57.9%, the viability, T/C [14] was 47.9% and the viability, T/C [15] was 49.9%. The viability, T/C [16] was 57.7%, the viability, T/C [17] was 45.7% and the viability, T/C [18] was 30.3%. For the same molecule, the viability, T/C [19] was 5.51%, the viability, T/C [20] was 4.35% and the viability, T/C [21] was 4.39%. For the same molecule, the viability, T/C [22] was 4.13%, the viability, T/C [23] was 4.65% and the viability, T/C [24] was 2.26%. For the same molecule, the viability, T/C [25] was 0.86%, the viability, T/C [26] was 1.32% and the viability, T/C [27] was 1.28%. The viability, T/C [28] was 2.28%, the viability, T/C [29] was 4.17% and the viability, T/C [30] was 2.16%. The viability, T/C [31] was 1.53%, the viability, T/C [32] was 2.07% and the viability, T/C [33] was 2.2%. For the same molecule, the viability, T/C [34] was 2.58%, the viability, T/C [35] was 3.3% and the viability, T/C [36] was 2.74%. The viability, T/C [37] was 0.76%, the viability, T/C [38] was 1.59% and the viability, T/C [39] was 1.62%. For the same molecule, the viability, T/C [40] was 2.38%, the viability, T/C [41] was 2.32% and the viability, T/C [42] was 2.42%.
Molecule `C=CC(=O)N1CCN(c2nc(=O)n(-c3c(C)ccnc3C(C)C)c3nc(-c4c(O)cccc4F)c(F)cc23)C(C)C1` (stereo not drawn) + CNC(=O)c1ccc(Nc2nc(OC3CCCC3)c3c(-c4ccc5nc(C)oc5c4)c[nH]c3n2)c(OC)c1 has an IC50 [1] of over 10000 nM, an IC50 [2] of 322 nM and an IC50 [3] of under 31.6 nM. For the same molecule, the IC50 [4] was under 31.6 nM, the IC50 [5] was under 31.6 nM and the IC50 [6] was under 31.6 nM. The viability, T/C [7] was 70.2%, the viability, T/C [8] was 84.2% and the viability, T/C [9] was 69%. For the same molecule, the viability, T/C [10] was 90.2%, the viability, T/C [11] was 80.9% and the viability, T/C [12] was 60.5%. For the same molecule, the viability, T/C [13] was 52.4%, the viability, T/C [14] was 54.5% and the viability, T/C [15] was 46%. For the same molecule, the viability, T/C [16] was 46.9%, the viability, T/C [17] was 50.2% and the viability, T/C [18] was 41%. The viability, T/C [19] was 42.7%, the viability, T/C [20] was 43.5% and the viability, T/C [21] was 42.2%. It also gave a viability, T/C [22] of 39.6%, a viability, T/C [23] of 46.1% and a viability, T/C [24] of 35.2%. It also gave a viability, T/C [25] of 32.4%, a viability, T/C [26] of 29.6% and a viability, T/C [27] of 30.1%. It also gave a viability, T/C [28] of 29.3%, a viability, T/C [29] of 29.3% and a viability, T/C [30] of 23.3%. The viability, T/C [31] was 24%, the viability, T/C [32] was 25.2% and the viability, T/C [33] was 23.1%. The viability, T/C [34] was 21.6%, the viability, T/C [35] was 23.5% and the viability, T/C [36] was 13.6%. The viability, T/C [37] was 24.6%, the viability, T/C [38] was 19.5% and the viability, T/C [39] was 19.1%. For the same molecule, the viability, T/C [40] was 22.7%, the viability, T/C [41] was 20.1% and the viability, T/C [42] was 10.2%.
For `CC(CO)NC(=O)c1cc(-c2ccc(Cl)cc2)nn(-c2cnn(C)c2)c1=O` (stereo not drawn), the viability, T/C (compound 0.0316 µM) was 85% and 116%, the viability, T/C (compound 0.1 µM) was 92.3% and 95.9% and the viability, T/C (compound 0.316 µM) was 79.3% and 80.6%. For the same molecule, the viability, T/C (compound 1 µM) was 88.4% and 76.2%, the viability, T/C (compound 3.16 µM) was 71.6% and 78.7% and the viability, T/C (compound 10 µM) was 56% and 64.9%. The IC50 (curve of compound) was over 10000 nM.
Molecule `C=C(F)C(=O)N1CCN(c2nc(OCC3CCCN3C)nc3c2CCN(c2cccc4cccc(Cl)c24)C3)CC1CC#N` (stereo not drawn) + CNC(=O)c1ccc(Nc2nc(OC3CCCC3)c3c(-c4ccc5nc(C)oc5c4)c[nH]c3n2)c(OC)c1 has an IC50 [1] of 4840 nM, an IC50 [2] of under 31.6 nM and an IC50 [3] of under 31.6 nM. The IC50 [4] was under 31.6 nM, the IC50 [5] was under 31.6 nM and the IC50 [6] was under 31.6 nM. The viability, T/C [7] was 61.2%, the viability, T/C [8] was 84.6% and the viability, T/C [9] was 74.5%. For the same molecule, the viability, T/C [10] was 84.6%, the viability, T/C [11] was 87.3% and the viability, T/C [12] was 1.29%. The viability, T/C [13] was 47.9%, the viability, T/C [14] was 49.9% and the viability, T/C [15] was 47.5%. The viability, T/C [16] was 48.3%, the viability, T/C [17] was 38.8% and the viability, T/C [18] was 2.57%. The viability, T/C [19] was 42.1%, the viability, T/C [20] was 39.7% and the viability, T/C [21] was 43.1%. The viability, T/C [22] was 39.1%, the viability, T/C [23] was 31.5% and the viability, T/C [24] was 1.59%. The viability, T/C [25] was 33.1%, the viability, T/C [26] was 33.1% and the viability, T/C [27] was 32.6%. For the same molecule, the viability, T/C [28] was 27.1%, the viability, T/C [29] was 27.6% and the viability, T/C [30] was 0.79%. For the same molecule, the viability, T/C [31] was 22.3%, the viability, T/C [32] was 24.6% and the viability, T/C [33] was 22.1%. The viability, T/C [34] was 21.8%, the viability, T/C [35] was 21.8% and the viability, T/C [36] was 0.16%. The viability, T/C [37] was 23.3%, the viability, T/C [38] was 22.4% and the viability, T/C [39] was 19.5%. The viability, T/C [40] was 21.6%, the viability, T/C [41] was 18.6% and the viability, T/C [42] was 0.21%.
